We go through 2 compounds from ChEMBL document CHEMBL3611972, “Leishmanicidal, antiproteolytic, and mutagenic evaluation of alkyltriazoles and alkylphosphocholines” (Eur J Med Chem, 2015).

A word on the IC50: it is the midpoint of a concentration-inhibition curve. The term CC50 denotes the concentration giving 50% cytotoxicity.

A short description of series [1]: Mutagenicity in CHOK1 cells assessed as induction of chromosomal DNA mutation by measuring micronuclei level at 6.41 to 25.63 incubated for 3 hrs by cytokinesis-block micronucleus assay. Format: toxicity, cell-based, Cricetulus griseus. As to conditions: chinese hamster, cho-k1, 3 h.
Series [2] concerns Leishmania amazonensis. In words: microbe, parasite or virus in culture. Format: functional, organism-based. The note with it: MHOM/BR/71973/M2269, 72 h.
Description: Leishmanicidal activity against Leishmania amazonensis MHOM/BR/71973/M2269 promastigotes assessed as reduction in surviving parasites incubated for 72 hrs by Neubauer's chamber based cell counting method
In series [3] the test system is Leishmania amazonensis. Put plainly: Leishmanicidal activity against Leishmania amazonensis MHOM/BR/71973/M2269 amastigotes infected in mouse peritoneal macrophages assessed as reduction in surviving parasites incubated for 72 hrs by Giemsa staining based optical light microscopy. Type of series: functional, organism-based. As to conditions: MHOM/BR/71973/M2269, 72 h.

Series [4] can be described thus: Cytotoxicity against mouse peritoneal macrophages assessed as reduction in cell viability incubated for 72 hrs by MTT assay. Format: cell-based, Peritoneal macrophage cell. A general note: Tetrazolium dyes change colour on reduction, which living cells bring about.
Series [5] can be described thus: Selectivity index, ratio of CC50 for mouse peritoneal macrophages to IC50 for Leishmania amazonensis MHOM/BR/71973/M2269 amastigotes infected in mouse peritoneal macrophages. Type of series: functional.
The nature of series [6]: Inhibition of Leishmania mexicana cysteine protease r-CPB2.8 using Z-FR-AMC fluorogenic substrate by spectrofluorometry.
In series [7] the test system is Salmonella typhimurium. In words: Mutagenicity in Salmonella typhimurium TA98 assessed as mutagenicity index at 150.98 uM/plate incubated for 90 mins at 37 degC in absence of liver S9 fractions by Ames test relative to untreated control. Type of series: toxicity, organism-based. The note with it: salmonella enterica subsp. enterica serovar typhimurium, 1.5 h. (In the Ames test, an excess of revertant colonies over the control signals mutagenicity.)

In series [8] the test system is Salmonella typhimurium. Put plainly: Mutagenicity in Salmonella typhimurium TA98 assessed as mutagenicity index at 150.98 uM/plate incubated for 90 mins at 37 degC in presence of liver S9 fractions by Ames test relative to untreated control. Type of series: toxicity, organism-based. As to conditions: salmonella enterica subsp. enterica serovar typhimurium, s9, 1.5 h.

Series [9] relates to Salmonella typhimurium. In words: Mutagenicity in Salmonella typhimurium TA100 assessed as mutagenicity index at 296.15 uM/plate incubated for 90 mins at 37 degC in absence of liver S9 fractions by Ames test relative to untreated control. The note with it: salmonella enterica subsp. enterica serovar typhimurium, 1.5 h. Format: toxicity, organism-based.
Series [10] has as its system Salmonella typhimurium. Put plainly: Mutagenicity in Salmonella typhimurium TA100 assessed as mutagenicity index at 150.98 uM/plate incubated for 90 mins at 37 degC in presence of liver S9 fractions by Ames test relative to untreated control. Type of series: toxicity, organism-based. As to conditions: salmonella enterica subsp. enterica serovar typhimurium, s9, 1.5 h.

Series [11] has as its system Salmonella typhimurium. In words: Mutagenicity in Salmonella typhimurium TA100 assessed as mutagenicity index at 296.15 uM/plate incubated for 90 mins at 37 degC in presence of liver S9 fractions by Ames test relative to untreated control. The note with it: salmonella enterica subsp. enterica serovar typhimurium, s9, 1.5 h. Format: toxicity, organism-based.
Series [12] has as its system Salmonella typhimurium. In words: Mutagenicity in Salmonella typhimurium TA100 assessed as mutagenicity index at 700.00 uM/plate incubated for 90 mins at 37 degC in presence of liver S9 fractions by Ames test relative to untreated control. Type of series: toxicity, organism-based. As to conditions: salmonella enterica subsp. enterica serovar typhimurium, s9, 1.5 h.

In series [13] the test system is Salmonella typhimurium. In words: Mutagenicity in Salmonella typhimurium TA97a assessed as mutagenicity index at 700.00 uM/plate incubated for 90 mins at 37 degC in absence of liver S9 fractions by Ames test relative to untreated control. Type of series: toxicity, organism-based. As to conditions: salmonella enterica subsp. enterica serovar typhimurium, 1.5 h.
Series [14] concerns Salmonella typhimurium. In words: Mutagenicity in Salmonella typhimurium TA97a assessed as mutagenicity index at 700.00 uM/plate incubated for 90 mins at 37 degC in presence of liver S9 fractions by Ames test relative to untreated control. Format: toxicity, organism-based. The note with it: salmonella enterica subsp. enterica serovar typhimurium, s9, 1.5 h.
Series [15] concerns Salmonella typhimurium. Put plainly: Mutagenicity in Salmonella typhimurium TA102 assessed as mutagenicity index at 296.15 uM/plate incubated for 90 mins at 37 degC in absence of liver S9 fractions by Ames test relative to untreated control. Type of series: toxicity, organism-based. As to conditions: salmonella enterica subsp. enterica serovar typhimurium, 1.5 h.
In series [16] the test system is Salmonella typhimurium. In words: Mutagenicity in Salmonella typhimurium TA102 assessed as mutagenicity index at 435.85 uM/plate incubated for 90 mins at 37 degC in absence of liver S9 fractions by Ames test relative to untreated control. Format: toxicity, organism-based. As to conditions: salmonella enterica subsp. enterica serovar typhimurium, 1.5 h.
In series [17] the test system is Salmonella typhimurium. Put plainly: Mutagenicity in Salmonella typhimurium TA102 assessed as mutagenicity index at 150.98 uM/plate incubated for 90 mins at 37 degC in presence of liver S9 fractions by Ames test relative to untreated control. Format: toxicity, organism-based. As to conditions: salmonella enterica subsp. enterica serovar typhimurium, s9, 1.5 h.
The subject of series [18] is Salmonella typhimurium. In words: Mutagenicity in Salmonella typhimurium TA100 assessed as mutagenicity index at 905.66 uM/plate incubated for 90 mins at 37 degC in absence of liver S9 fractions by Ames test relative to control. Format: toxicity, organism-based. The note with it: salmonella enterica subsp. enterica serovar typhimurium, 1.5 h.
The subject of series [19] is Salmonella typhimurium. In words: Mutagenicity in Salmonella typhimurium TA100 assessed as mutagenicity index at 313.73 uM/plate incubated for 90 mins at 37 degC in presence of liver S9 fractions by Ames test relative to control. Type of series: toxicity, organism-based. The note with it: salmonella enterica subsp. enterica serovar typhimurium, s9, 1.5 h.
Series [20] relates to Salmonella typhimurium. In words: Mutagenicity in Salmonella typhimurium TA100 assessed as mutagenicity index at 905.66 uM/plate incubated for 90 mins at 37 degC in presence of liver S9 fractions by Ames test relative to control. Format: toxicity, organism-based. The note with it: salmonella enterica subsp. enterica serovar typhimurium, s9, 1.5 h.
Series [21] concerns Salmonella typhimurium. In words: Mutagenicity in Salmonella typhimurium TA100 assessed as mutagenicity index at 1185.19 uM/plate incubated for 90 mins at 37 degC in presence of liver S9 fractions by Ames test relative to control. Type of series: toxicity, organism-based. The note with it: salmonella enterica subsp. enterica serovar typhimurium, s9, 1.5 h.
The subject of series [22] is Salmonella typhimurium. In words: Mutagenicity in Salmonella typhimurium TA97a assessed as mutagenicity index at 313.73 uM/plate incubated for 90 mins at 37 degC in absence of liver S9 fractions by Ames test relative to control. Type of series: toxicity, organism-based. The note with it: salmonella enterica subsp. enterica serovar typhimurium, 1.5 h.
Series [23] relates to Salmonella typhimurium. Put plainly: Mutagenicity in Salmonella typhimurium TA97a assessed as mutagenicity index at 616.38 uM/plate incubated for 90 mins at 37 degC in absence of liver S9 fractions by Ames test relative to control. Format: toxicity, organism-based. The note with it: salmonella enterica subsp. enterica serovar typhimurium, 1.5 h.
The test system of series [24] is Salmonella typhimurium. Put plainly: Mutagenicity in Salmonella typhimurium TA97a assessed as mutagenicity index at 1185.19 uM/plate incubated for 90 mins at 37 degC in absence of liver S9 fractions by Ames test relative to control. Type of series: toxicity, organism-based. As to conditions: salmonella enterica subsp. enterica serovar typhimurium, 1.5 h.
For series [25], the system named is Salmonella typhimurium. Put plainly: Mutagenicity in Salmonella typhimurium TA97a assessed as mutagenicity index at 1454.55 uM/plate incubated for 90 mins at 37 degC in absence of liver S9 fractions by Ames test relative to control. The note with it: salmonella enterica subsp. enterica serovar typhimurium, 1.5 h. Type of series: toxicity, organism-based.
Series [26] relates to Salmonella typhimurium. In words: Mutagenicity in Salmonella typhimurium TA97a assessed as mutagenicity index at 313.73 uM/plate incubated for 90 mins at 37 degC in presence of liver S9 fractions by Ames test relative to control. Type of series: toxicity, organism-based. The note with it: salmonella enterica subsp. enterica serovar typhimurium, s9, 1.5 h.
For series [27], the system named is Salmonella typhimurium. In words: Mutagenicity in Salmonella typhimurium TA102 assessed as mutagenicity index at 313.73 uM/plate incubated for 90 mins at 37 degC in absence of liver S9 fractions by Ames test relative to control. Type of series: toxicity, organism-based. The note with it: salmonella enterica subsp. enterica serovar typhimurium, 1.5 h.
In series [28] the test system is Salmonella typhimurium. Put plainly: Mutagenicity in Salmonella typhimurium TA102 assessed as mutagenicity index at 616.38 uM/plate incubated for 90 mins at 37 degC in absence of liver S9 fractions by Ames test relative to control. The note with it: salmonella enterica subsp. enterica serovar typhimurium, 1.5 h. Type of series: toxicity, organism-based.
For series [29], the system named is Salmonella typhimurium. Put plainly: Mutagenicity in Salmonella typhimurium TA102 assessed as mutagenicity index at 616.38 uM/plate incubated for 90 mins at 37 degC in presence of liver S9 fractions by Ames test relative to control. Format: toxicity, organism-based. As to conditions: salmonella enterica subsp. enterica serovar typhimurium, s9, 1.5 h.
Series [30] deals with Salmonella typhimurium. In words: Mutagenicity in Salmonella typhimurium TA102 assessed as mutagenicity index at 1454.55 uM/plate incubated for 90 mins at 37 degC in presence of liver S9 fractions by Ames test relative to control. Type of series: toxicity, organism-based. The note with it: salmonella enterica subsp. enterica serovar typhimurium, s9, 1.5 h.
Series [31] is described as follows: Mutagenicity in CHOK1 cells assessed as induction of chromosomal DNA mutation by measuring nuclear division index level at 14.51 to 58.04 incubated for 3 hrs by fluorescence microscopy. Format: toxicity, cell-based, Cricetulus griseus. As to conditions: chinese hamster, cho-k1, 3 h.
Series [32] has as its system Salmonella typhimurium. In words: Mutagenicity in Salmonella typhimurium TA98 assessed as mutagenicity index at 616.38 uM/plate incubated for 90 mins at 37 degC in absence of liver S9 fractions by Ames test relative to control. Type of series: toxicity, organism-based. The note with it: salmonella enterica subsp. enterica serovar typhimurium, 1.5 h.

Regarding `CS(=O)(=O)OCCCCCCCCCCCCn1cc(CCCO)nn1`, in [1], the Activity result is “Non-toxic”. Moreover, the results for the IC50 (in the series with Leishmania amazonensis [2]; with Leishmania amazonensis [3]; in [6]) were 28.5 µM, 14.2 µM and 8.18 µM, respectively. For the same compound, the CC50 at 72 h in [4] worked out at 163 µM. In series [5], the “Ratio CC50/IC50” value came out at 11.47. Also, the Activity_index turned out to be 1 in the series on Salmonella typhimurium [7]; 1.1 with Salmonella typhimurium [8]; 1.3 with Salmonella typhimurium [9]; 0.9 in the series with Salmonella typhimurium [10]; 0.9 with Salmonella typhimurium [11]; 0.9 in the series on Salmonella typhimurium [12]. Besides, the Activity_index stood at 1.1 in the series on Salmonella typhimurium [13]; 0.8 in the series on Salmonella typhimurium [14]; 0.9 with Salmonella typhimurium [15]; 0.9 in the series with Salmonella typhimurium [16]; 1.1 in the series on Salmonella typhimurium [17].

As for `CCOC(=O)c1cn(CCCCCCCCCOS(C)(=O)=O)nn1`, the Activity_index with Salmonella typhimurium [18] worked out at 1.2; in the series on Salmonella typhimurium [19], 0.9; in the series with Salmonella typhimurium [20] it was 1; with Salmonella typhimurium [21], 0.9; in the series with Salmonella typhimurium [22] it was 1.3; with Salmonella typhimurium [23], 1.6. In addition, the Activity_index was 1.3 with Salmonella typhimurium [24]; 1.4 in the series with Salmonella typhimurium [25]; 0.8 in the series on Salmonella typhimurium [26]; 1.2 with Salmonella typhimurium [27]; 1.1 with Salmonella typhimurium [28]; 1.7 with Salmonella typhimurium [29]. In addition, the Activity_index with Salmonella typhimurium [30] and in the series on Salmonella typhimurium [32] was 1.2 each time. Further, the Activity entry in series [31] is on record as “Non-toxic”. Also, the 50% inhibitory concentration (IC50) with Leishmania amazonensis [2] was 37.2 µM; in the series with Leishmania amazonensis [3], 76.7 µM; in [6], 0.857 µM. For the same compound, the CC50 at 72 h in [4] came to 983 µM. In addition, the “Ratio CC50/IC50” value in [5] came to 12.82.
